In EP0726261A1, “Herbidical 1,2,4 thiadiazoles” (American Cyanamid Company, priority 1995, dated 1996):

Legend:
Assay type in all cases: in vivo
[1] = system: Echinochloa crus-galli; assay: Herbicidal activity, postemergence test (Example 66); design: key: A rating of 0 indicates growth as untreated control; a rating of 9 indicates death; details: post; 1000 g/ha; assessed visually twenty days after spraying
Protocol: (§1) To evaluate their herbicidal activity, compounds according to the invention are tested using a representative range of plants: ZEAMX Zea mays ORYSA Oryza sativa GLXMA Glycine max BEAVA Beta vulgaris LIUUT Linum usitatissimum AVEFA Avena fatua ECHCG Echinochloa crus-galli SINAL Sinapsis alba
(§2) The tests fall into two categories, preemergence and postemergence. The preemergence tests involve spraying a liquid formulation of the compound onto the soil in which the seeds of the plant species mentioned above have recently been sown. The postemergence tests involve spraying a liquid formulation of the compound onto seedling plants of the above species.
(§3) The soil used in the tests is a prepared horticultural loam.
(§4) The formulations used in the tests are prepared from solutions of the test compounds in acetone containing 0.4% by weight of an alkylphenol/ethylene oxide condensate available under the trademark TRITON X-155. These acetone solutions are diluted with water and the resulting formulations applied at dosage levels corresponding to 1000 g of active material per hectare in a volume equivalent to 900 litres per hectare.
(§5) In the preemergence tests, untreated sown soil, and in the postemergence tests, untreated soil bearing seedling plants, are used as controls.
(§6) The herbicidal effects of the test compounds are assessed visually twenty days after spraying the foliage and the soil and are recorded on a 0-9 scale. A rating of 0 indicates growth as untreated control, a rating of 9 indicates death. An increase of 1 unit on the linear scale approximates to an 11% increase in the level of effect.

[2] = system: Sinapsis alba; assay: as above; design: key: A rating of 0 indicates growth as untreated control; a rating of 9 indicates death; details: post; 1000 g/ha; assessed visually twenty days after spraying
Protocol: as §1, §2, §3, §4, §5, §6

[3] = system: Linum usitatissimum; assay: as above; design: key: A rating of 0 indicates growth as untreated control; a rating of 9 indicates death; details: post; 1000 g/ha; assessed visually twenty days after spraying
Protocol: as §1, §2, §3, §4, §5, §6

[4] = system: Avena fatua; assay: as above; design: key: A rating of 0 indicates growth as untreated control; a rating of 9 indicates death; details: post; 1000 g/ha; assessed visually twenty days after spraying
Protocol: as §1, §2, §3, §4, §5, §6

[5] = system: Beta vulgaris; assay: as above; design: key: A rating of 0 indicates growth as untreated control; a rating of 9 indicates death; details: post; 1000 g/ha; assessed visually twenty days after spraying
Protocol: as §1, §2, §3, §4, §5, §6

[6] = system: Oryza sativa; assay: as above; design: key: A rating of 0 indicates growth as untreated control; a rating of 9 indicates death; details: post; 1000 g/ha; assessed visually twenty days after spraying
Protocol: as §1, §2, §3, §4, §5, §6

[7] = system: Zea mays; assay: as above; design: key: A rating of 0 indicates growth as untreated control; a rating of 9 indicates death; details: post; 1000 g/ha; assessed visually twenty days after spraying
Protocol: as §1, §2, §3, §4, §5, §6

[8] = system: Echinochloa crus-galli; assay: Herbicidal activity, preemergence test (Example 66); design: key: A rating of 0 indicates growth as untreated control; a rating of 9 indicates death; details: pre; 1000 g/ha; assessed visually twenty days after spraying
Protocol: as §1, §2, §3, §4, §5, §6

[9] = system: Sinapsis alba; assay: as above; design: key: A rating of 0 indicates growth as untreated control; a rating of 9 indicates death; details: pre; 1000 g/ha; assessed visually twenty days after spraying
Protocol: as §1, §2, §3, §4, §5, §6

[10] = system: Linum usitatissimum; assay: as above; design: key: A rating of 0 indicates growth as untreated control; a rating of 9 indicates death; details: pre; 1000 g/ha; assessed visually twenty days after spraying
Protocol: as §1, §2, §3, §4, §5, §6

[11] = system: Avena fatua; assay: as above; design: key: A rating of 0 indicates growth as untreated control; a rating of 9 indicates death; details: pre; 1000 g/ha; assessed visually twenty days after spraying
Protocol: as §1, §2, §3, §4, §5, §6

[12] = system: Beta vulgaris; assay: as above; design: key: A rating of 0 indicates growth as untreated control; a rating of 9 indicates death; details: pre; 1000 g/ha; assessed visually twenty days after spraying
Protocol: as §1, §2, §3, §4, §5, §6

[13] = system: Oryza sativa; assay: as above; design: key: A rating of 0 indicates growth as untreated control; a rating of 9 indicates death; details: pre; 1000 g/ha; assessed visually twenty days after spraying
Protocol: as §1, §2, §3, §4, §5, §6

[14] = system: Zea mays; assay: as above; design: key: A rating of 0 indicates growth as untreated control; a rating of 9 indicates death; details: pre; 1000 g/ha; assessed visually twenty days after spraying
Protocol: as §1, §2, §3, §4, §5, §6

[15] = system: Glycine max; assay: as above; design: key: A rating of 0 indicates growth as untreated control; a rating of 9 indicates death; details: pre; 1000 g/ha; assessed visually twenty days after spraying
Protocol: as §1, §2, §3, §4, §5, §6

[16] = system: Glycine max; assay: Herbicidal activity, postemergence test (Example 66); details: post; 1000 g/ha; assessed visually twenty days after spraying
Protocol: as §1, §2, §3, §4, §5, §6

| SMILES | herbicidal effects on a 0-9 scale, ECHCG [1] | herbicidal effects on a 0-9 scale, SINAL [2] | herbicidal effects on a 0-9 scale, LIUUT [3] | herbicidal effects on a 0-9 scale, AVEFA [4] | herbicidal effects on a 0-9 scale, BEAVA [5] | herbicidal effects on a 0-9 scale, ORYSA [6] | herbicidal effects on a 0-9 scale, ZEAMX [7] | herbicidal effects on a 0-9 scale, ECHCG [8] | herbicidal effects on a 0-9 scale, SINAL [9] | herbicidal effects on a 0-9 scale, LIUUT [10] | herbicidal effects on a 0-9 scale, AVEFA [11] | herbicidal effects on a 0-9 scale, BEAVA [12] | herbicidal effects on a 0-9 scale, ORYSA [13] | herbicidal effects on a 0-9 scale, ZEAMX [14] | herbicidal effects on a 0-9 scale, GLXMA [15] | herbicidal effects on a 0-9 scale, GLXMA [16] |
| --- | --- | --- | --- | --- | --- | --- | --- | --- | --- | --- | --- | --- | --- | --- | --- | --- |
| CC(C)c1nsc(C(=O)NCc2cccs2)n1 [Example 9] | 5 | 7 | 2 | 0 | 7 | 0 | 2 | 2 | 4 | 0 | 0 | 0 | 0 | 0 | 0 | 2 |
| CC(C)c1nsc(C(=O)N[C@@H](C)c2ccccc2)n1 [Example 10, (S)-3-Isopropyl-[1,2,4]thiadiazole-5-carboxylic acid, 1-(phenylethyl)amide] | 8 | 8 | 8 | 5 | 8 | 0 | 2 | 5 | 7 | 4 | 0 | 7 | 0 | 0 | 0 | 5 |
| CC(C)Cc1nsc(C(=O)NCc2cccs2)n1 [Example 11] | 2 | 7 | 2 | 0 | 4 | 0 | 0 | 0 | 0 | 0 | 0 | 0 | 0 | 0 | 0 | 2 |
| CC(C)Cc1nsc(C(=O)N[C@@H](C)c2ccccc2)n1 [Example 13, (S)-3-Isobutyl-[1,2,4]thiadiazole-5-carboxylic acid, 1-(phenylethyl)amide] | 8 | 8 | 7 | 5 | 9 | 0 | 2 | 2 | 4 | 0 | 0 | 5 | 0 | 0 | 0 | 5 |
| O=C(NCc1cccs1)c1nc(-c2ccc(F)cc2)ns1 [Example 14] | 2 | 8 | 5 | 0 | 8 | 0 | 0 | 0 | 0 | 0 | 0 | 0 | 0 | 0 | 0 | 2 |
| C[C@H](NC(=O)c1nc(-c2ccc(F)cc2)ns1)c1ccccc1 [Example 16, (S)-3-(4-Fluorophenyl)-[1,2,4]thiadiazole-5-carboxylic acid, 1-(phenylethyl)amide] | 8 | 9 | 7 | 7 | 9 | 2 | 0 | 0 | 0 | 0 | 0 | 0 | 0 | 0 | 0 | 6 |
| CCNC(=O)c1nc(-c2ccc(F)cc2)ns1 [Example 17] | 2 | 8 | 2 | 4 | 7 | 0 | 2 | 0 | 0 | 0 | 0 | 0 | 0 | 0 | 0 | 5 |
| C=CCNC(=O)c1nc(-c2ccc(F)cc2)ns1 [Example 18] | 0 | 9 | 5 | 2 | 8 | 0 | 0 | 0 | 0 | 0 | 0 | 0 | 0 | 0 | 0 | 6 |
| CC(C)CNC(=O)c1nc(-c2ccc(F)cc2)ns1 [Example 19] | 0 | 8 | 2 | 0 | 8 | 0 | 0 | 0 | 0 | 0 | 0 | 0 | 0 | 0 | 0 | 6 |
